Tests used:
E. Coli = E. Coli cultures exposed 45 minutes at 37° C., plate counts; assay type: cell-based; settings: peroxide 5 g/l and/or ASP 1 3 g/l; for Counts recorded: 45 minutes at 37° C., controls 40×10^8 (time zero), 37×10^8 (45 minutes), average of three; for reduction in bacteria count / kill: 45 minutes treatment at 37° C.
Procedure: Cultures of E. Coli in Ringer's saline were exposed to various conditions for 45 minutes at 37° C. These were then serially diluted (eight 10-fold dilutions) and plated onto nutrient agar (treatments were done in triplicate to ensure reproducibility), and five tests were done overall as shown below. Initial E. Coli concentration was approximately 5×10^9/ml and cultures were grown in nutrient broth overnight before being centrifuged and then re-suspended in saline. A E. Coli control-time zero. B E. Coli control-time 45 minutes C E. Coli plus peroxide at 5 g/l for 45 minutes D E. Coli plus […] at 3 g/l for 45 minutes E E. Coli plus peroxide of 5 g/l plus […] (3 g/l) for 45 minutes Plates were observed and counted after 2 days incubation at 37° C.

[1] = Bleaching of dye solutions (degree of dye removal); settings: activator 2 g/l
Procedure: The bleaching solution was prepared as follows: […] Bleach activator 2 g/l […] Total volume 25 ml pH 3 was obtained with acetic acid; pH 7 was obtained with sodium dihydrogen phosphate (0.1M) and sodium hydroxide (0.1M); pH 10 was obtained using sodium carbonate. […] The degree of dye removal or bleaching (R %) was calculated using the following equation: % R=1-(A2/A1)×100 […]

Row | Structure (SMILES) | Counts recorded (E. Coli) | reduction in bacteria count / kill (E. Coli) | degree of dye removal % R ([1]; pH 3, 20° C., 3 hours) | degree of dye removal % R ([1]; pH 3, 20° C., 24 hours) | degree of dye removal % R ([1]; pH 7, 20 C., 3 hours) | degree of dye removal % R ([1]; pH 7, 20 C., 24 hours) | degree of dye removal % R ([1]; pH 10, 20°C., 3 hours) | degree of dye removal % R ([1]; pH 10, 20°C., 24 hours)
1 | OO [H2O2, Hydrogen peroxide] | 12.9×10^8 colony forming units ml^−1 | ~66% | 3.3% | 85% | 2.7% | 7.1% | 11.3% | 24.8%
2 | NC(=O)S(=O)(=O)O [ASP 1] | 7.9×10^8 colony forming units ml^−1 | about 80% | – | – | – | – | – | –
